For `COC(=O)c1ccc2cc(OC)ccc2n1`, the melting point was 129 °C.
`CCOC(=O)c1nnn(-c2ccccc2)c1Cl` gave a melting point of 80 to 81 °C.
In the case of `CN1CCN(c2ccc(N/C=C3\C(=O)NC(=O)c4ccc(C(=O)N(C)C)cc43)cc2)CC1`, the melting point is reported as over 300 °C.
For `Nc1cccc(-c2cc3[nH]c4ccc(O)cc4c3c3c2C(=O)NC3=O)c1`, the melting point was 279 to 284 °C.
`COc1ccc(O[C@@H]2COc3ccc(OCc4ccccn4)cc3[C@@H]2O)cc1` (relative stereo) gave a melting point of 117 to 118 °C.
Work on `Cc1nnc(Br)n1-c1ccc(Cl)cc1C(=O)c1ccccc1` yielded a melting point of 198 to 199 °C.
For `Nc1cc(OCC2CC=CCC2)cc(N)n1` (centres undefined), the melting point was 89 °C.
With `COC(=O)c1cnn(C)c1C(=O)Nc1ccn2nc(-c3ccccc3)nc2c1` the melting point was 243 to 247 °C.
With `CC(=O)N1c2ccccc2-n2cnc(-c3nc(C4CC4)no3)c2C1(C)C` the melting point was 169 to 171 °C.
In the case of `CC(=O)Nc1c(C(=O)c2cc(-c3ccccc3)no2)[nH]c2cc(Cl)ccc12`, the melting point is reported as 209 to 210 °C.
With `COc1cc2ccc([C@](O)(c3c[nH]cn3)C(C)C)cc2cc1OC` the melting point was 156 to 157 °C.
For `COc1cc(C2CCN(C(=O)OC(C)(C)C)CC2)cnc1COc1ccc(S(C)(=O)=O)cc1`, the melting point was 153 to 154 °C.
For `CC(=O)N(C)c1cc(N)cc(N(C)C(C)=O)c1`, the melting point was 179 to 181 °C.
With `CCn1c(=O)n(C2CCN(CCCCN3C(=O)c4ccccc4S3(=O)=O)CC2)c2ccccc21` the melting point was 124 to 125 °C.
`N#CC1=C(c2ccc(Cl)s2)Nc2n[nH]cc2C1c1cccc2nonc12` (centres undefined) showed a melting point of 210 °C.
Compound `CC(C)n1nc(O)nc1Cl` has a melting point of 100 to 104 °C.
For `CN1CCN(C2=C3CN(C)CC34CC(=CC#N)C=CC4=NC=C2)CC1` (centres undefined), the melting point was 178 to 180 °C.
`CC(COc1cccc2oc(C#N)cc(=O)c12)OC=O` (centres undefined) showed a melting point of 113 to 115 °C.
Compound `OCc1c(F)c(Cl)c(F)c(Cl)c1F` has a melting point of 67 to 68 °C.
With `C=Cc1cc(S(=O)(=O)c2ccc(N)cc2)cc(N2CCCC2)n1` the melting point was 181 to 182 °C.
Compound `CCCc1nncn1-c1ccc(O)cc1` has a melting point of 176 °C.
With `COC(=O)c1c(N)ncn1C1c2ccccc2CC2CCCCC21` (centres undefined) the melting point was 155 to 159 °C.
Work on `COc1ccc(S(=O)(=O)c2cccs2)c(Cl)c1Cl` yielded a melting point of 190 °C.
With `Cc1cccc2c1C(=O)N(C)CC(=O)N2` the melting point was 200 to 202 °C.
`CS(=O)(=O)c1ccc(-c2c(-c3ccccc3)noc2C(F)F)cc1` showed a melting point of 126 to 128 °C.
Compound `COc1cc(OC)c(N2CCCC2)cc1/C=C/C(=O)c1ccc(S(=O)(=O)Nc2ccccn2)cc1` has a melting point of 124 to 128 °C.
`CCOC(=O)n1c(=O)n(CCN2CCN(c3ccccc3OC)CC2)c(=O)c2sccc21` showed a melting point of 121 to 122 °C.
With `Cc1ccc2c(c1)[C@H](Nc1ncnc(NC(=O)C(F)(F)F)n1)[C@@H](C)C2` the melting point was 55 to 58 °C.
Compound `CCN(CC)c1ccc(C=O)c([N+](=O)[O-])c1` has a melting point of 75 to 77 °C.
Compound `COc1ccc(-c2cccc(S(=O)(=O)N3CCC(Nc4nc(Nc5cccc(C(F)(F)F)c5)nc(OCC(F)(F)F)n4)CC3)c2)cc1` has a melting point of 180 to 182 °C.
With `Cc1ccccc1COC(=O)NC(CO)Cc1ccc(O)cc1` (centres undefined) the melting point was 78 to 81 °C.
`COc1c(C)c2c(c(O)c1C/C=C(\C)C(CC(=O)O)OC)C(=O)OC2` (centres undefined) showed a melting point of 133 to 135 °C.
`CC(Oc1ccc2nc(NC(=O)NCCN3CCOCC3)sc2c1)c1c(Cl)ccc(F)c1Cl` (centres undefined) gave a melting point of 110 °C.
In the case of `NC(=O)N1Cc2ccccc2-c2ccccc2C1`, the melting point is reported as 212 to 214 °C.
Work on `CN(C)C(=O)Cc1cn(Cc2ccccc2)c2ccc(I)cc12` yielded a melting point of 167 to 168 °C.
For `COc1ncc([N+](=O)[O-])cc1C`, the melting point was 95 to 96.5 °C.
In the case of `CNC(=O)ON(Cc1ccc(OCc2ccccc2)cc1)C(C)=O`, the melting point is reported as 101 to 102 °C.
`Cc1ccccc1N1CCN(CCn2c(=O)[nH]c3cscc3c2=O)CC1` gave a melting point of 214 to 216 °C.
For `CCCN(CCN1CCN(C(=O)c2ccc3[nH]ccc3c2)CC1)C1CCc2ccc(O)cc2C1` (centres undefined), the melting point was 194 to 199 °C.
`CC(C)n1cc(C(=O)Nc2nccs2)c2ccc(O)cc21` showed a melting point of 239 to 241 °C.
`CCOC(=O)C1=C(C)NC(CO)=C(C(=O)OCC)C1c1ccccc1/C=C/C(=O)OC(C)(C)C` (centres undefined) gave a melting point of 163 to 164 °C.
In the case of `O=C(CNCc1ccc(OCc2ccccc2)cc1)NCCCOc1ccccc1`, the melting point is reported as 55 to 56 °C.
For `CCOC(=O)Cc1cccc(-c2nc(COc3ccc(CO)cc3OC)c(C)o2)c1`, the melting point was 96 to 98 °C.
Work on `CCC(=O)OCC(=O)C1(OC(C)=O)CCC2C3CC(C)C4=CC(=O)CCC4(C)C3C(O)CC21C` (centres undefined) yielded a melting point of 99 to 103 °C.
For `Cc1[nH]c(/C=C2\C(=O)Nc3cc(NC(=O)NC(=O)c4ccccc4)ccc32)c(C)c1C(=O)O`, the melting point was 270 to 275 °C.
With `CS(=O)(=O)c1c[nH]nc1C(CCCC(=O)C1CCCCC1)CO[N+](=O)[O-]` (centres undefined) the melting point was 111 to 113 °C.
In the case of `Cc1c(F)cccc1Cc1c(-c2ccccc2)c2cc(C=O)cnn2c1C(=O)N1CCN(C(=O)OC(C)(C)C)CC1`, the melting point is reported as 208 to 209 °C.
Compound `NS(=O)(=O)CCC(O)COCc1ccccc1` (centres undefined) has a melting point of 94 to 98 °C.
With `CCCn1c(=S)nc(NCc2ccncc2)c2[nH]c(C3CC3)nc21` the melting point was 204 to 210 °C.
For `CC(C)OC(=O)N1c2ccccc2Sc2cc(O)c3ccccc3c21`, the melting point was 205 to 206 °C.
`CCn1nc(-c2cnc(N)nc2-c2ccccc2)ccc1=O` gave a melting point of 255 to 256 °C.
With `COc1ccc(C(=O)c2cc3ccccc3o2)cc1` the melting point was 93 to 94 °C.
For `O=C(OCCN1CCOC1=O)c1ccccc1Nc1ccnc2c(C(F)(F)F)cccc12`, the melting point was 158 to 160 °C.
`CNC(=O)ON=C1N=C(c2ccccc2)C(C)(C)S1` showed a melting point of 135 to 137 °C.
For `Cc1noc(NS(=O)(=O)c2ccccc2-c2ccc(CC(C)C)cc2CO)c1C`, the melting point was 60 to 67 °C.
With `CNc1nc(Nc2ccc(Cl)c(Cl)c2)ncc1NC(=O)OC` the melting point was 303 to 305 °C.
For `Cc1ccc(-c2cnc(N)c(C(=O)Nc3cccnc3)n2)cc1C`, the melting point was 178 to 182 °C.
For `CC(=O)N1CC(C)(C)c2cc(OC(C)C)ccc21`, the melting point was 86 to 87 °C.
`CCn1cc(C(=O)O)c(=O)c2cc(F)c(N3CCN(C)C(COC)C3)cc21` (centres undefined) showed a melting point of 228 to 230 °C.
For `CCNC(=O)N(NC(=O)c1cccc(Cl)c1)C(C)(C)C`, the melting point was 67 to 68 °C.
Compound `N#Cc1c(N2CCN(C(=O)c3ccco3)CC2)c2cc(Cl)cnc2n(Cc2cccc(F)c2)c1=O` has a melting point of 134 °C.
With `CCCC12CCC(=O)C=C1c1c(cc(CCC(=O)O)c(Cl)c1Cl)C2` (centres undefined) the melting point was 201 to 203 °C.
Work on `CCc1nc2c(N)nc3cc(OCCc4c(C)n[nH]c4C)ccc3c2s1` yielded a melting point of 195 to 197 °C.
With `CC(C)(OCc1cc2cc(C(F)(F)F)ccc2n1S(=O)(=O)c1ccc2ncsc2c1)C(=O)O` the melting point was 98 to 100 °C.
`O=Cc1c2ccccc2cc2cccc(SCCO)c12` gave a melting point of 103 to 104 °C.
With `C=CCNc1cc2c(c3ccccc13)C(CCl)CN2C(=O)c1cc2cc(OC)c(OC)c(OC)c2[nH]1` (centres undefined) the melting point was 107 to 112 °C.
For `COc1cc(/C=C/C(=O)Nc2ccccc2C(=O)O)ccc1OCC1CCCCC1`, the melting point was 207 to 210 °C.
`Cc1nn(C)c(-c2ccc(F)cc2)c1C=O` gave a melting point of 130 to 131 °C.
In the case of `Cc1cc(C)c2nc(NCCCN3CCCCC3)n(Cc3nc(C)ccc3O)c2c1`, the melting point is reported as over 260 °C.
`COc1ccccc1N1CCN(CCc2ccc3[nH]c(=O)oc3c2)CC1` gave a melting point of 182 to 184 °C.
With `O=C(O)CCc1cn(Cc2ccc(OCc3csc(-c4ccccc4)n3)cc2)nc1-c1ccccc1` the melting point was 132 to 133 °C.
Compound `CCCCCS(=O)(=O)NC(=O)/C=C/c1ccc(OCCOC(C)=O)cc1Oc1ncc(C(F)(F)F)cc1Cl` has a melting point of 141 to 144 °C.
For `Cc1cc(-c2cscn2)ccc1-c1cc(C(F)(F)F)nn1-c1ccc(S(C)(=O)=O)cc1`, the melting point was 175 °C.
Compound `Nc1ccc(OCc2ccccc2)cc1[N+](=O)[O-]` has a melting point of 139 to 141 °C.
For `COC(=O)c1cnn(-c2ccc(Cl)cc2Cl)c1N`, the melting point was 143 to 145 °C.
`Cn1cnc(COc2nn3c(-c4ccccc4F)nnc3cc2C2(C)CCOCC2)n1` gave a melting point of 154 °C.
Work on `CSC1(CC(=O)O)CCC1` yielded a melting point of 43 to 46 °C.
`CN(OCc1ccccc1)S(=O)(=O)c1ccccc1S(N)(=O)=O` showed a melting point of 122 to 128 °C.
`CCOC(=O)c1cc2c(C)ccc(N(C)S(=O)(=O)c3cccnc3Cl)c2[nH]1` gave a melting point of 158 to 159 °C.
`NC(N)=Nc1nc(-c2ccc(-c3nc(N)n[nH]3)o2)cs1` gave a melting point of over 300 °C.
`O=S(=O)(Nc1cc(Cl)sc1Cl)c1cc(-c2ncc(C(F)(F)F)cc2Cl)ccc1Cl` showed a melting point of 106 to 108 °C.
`CC(C)(S)CNC(=O)c1ccccc1-c1ccccc1C(=O)O` gave a melting point of 150 to 153 °C.
`CCc1noc(-c2cn(-c3ccc(Oc4ccccc4)cc3)cn2)n1` gave a melting point of 172 to 173 °C.
`CCS(=O)(=O)c1cc(C(=O)NCC2CCCN2CC2CCCC2)c(OC)cc1N` (centres undefined) showed a melting point of 140 to 141 °C.
Work on `Cc1nn(-c2cc(Oc3ccc([N+](=O)[O-])cn3)c(Cl)cc2F)c(=O)n1C(F)F` yielded a melting point of 120 to 123 °C.
`COC(=O)CCCCc1cccnc1CNC=O` gave a melting point of 43 to 45 °C.
With `CN1C(=O)CCc2cccc(N3CCN(CCCCOc4ccc5c(n4)NC(=O)CCC5)CC3)c21` the melting point was 184 to 185 °C.
`O=c1ccc2cc(-c3cccnc3)ccc2[nH]1` gave a melting point of 217 to 218 °C.
For `CCCCCCCCCCC(Cn1ccnc1)SCCCC` (centres undefined), the melting point was 95 to 97 °C.
For `O=C(NCc1ccccn1)c1ccnc(N2CCN(CC3CC3)C2=O)c1`, the melting point was 122 to 123 °C.
With `O=C(O)Cc1ccc(NC(=O)C(COc2cccnc2)NS(=O)(=O)c2ccc(Br)cc2)cc1` (racemic) the melting point was 205 to 207 °C.
In the case of `CC1(C(=O)O)CCc2c(-c3ccc(Cl)cc3)noc2C1` (centres undefined), the melting point is reported as 169 to 170 °C.
For `N#CCCNC(=O)c1cccc(-c2cccc3nn(Cc4ccc(F)c(Cl)c4)cc23)c1`, the melting point was 165 to 166 °C.
`COc1cc2c(cc1OC)CN(CCCCc1ccc(NC(=O)c3cccc4c(=O)c5cccc(C)c5[nH]c34)cc1)CC2` showed a melting point of 140 °C.
Compound `CCN(C)C(=O)c1cc(C)c(C(c2cc(F)ccc2F)S(=O)(=O)c2ccc(F)cc2)cn1` (centres undefined) has a melting point of 165 to 167 °C.
`CC(C)CCCC(C)C1CCC2C3CC=C4CC(OCCCCCCSC5OCC(O)C(O)C5O)CCC4(C)C3CCC12C` (centres undefined) gave a melting point of 115 °C.
`CCCc1c(OCCOc2ccc(S(=O)(=O)c3nnn[nH]3)cc2)ccc(C(C)=O)c1O` gave a melting point of 88 to 90 °C.
In the case of `CCOC(=O)c1nc(-c2cccc(Br)c2)ns1`, the melting point is reported as 87 to 90 °C.
Compound `O=C1C=C2CCCCC2N1c1ccc(OCCN2CCOCC2)cc1` (centres undefined) has a melting point of 96 °C.

Reference: a melting point compilation (Tetko et al.; mined from patent text by program, amines drawn as free bases though some values may be those of a salt)
